Earlier results in patent publication US6645524B2, “Oral pharmaceutical dosage forms for pulsatile delivery of an antiarrhythmic agent” (Pierce Management LLC, priority 2000, dated 2003).
Like-named read-outs stand apart in the source and are kept apart here.

How the values were obtained:
[1] = more than 99% enantiomerically pure, given in tablets
[2] = test system: high-risk post-myocardial infarction patients; conditions: 3,121 patients with left ventricular ejection fraction of 40% or below, versus placebo
[3] = test system: patients with symptomatic primary paroxymal atrial fibrillation/atrial flutter; conditions: for median time to recurrence of symptomatic ECG-documented atrial fibrillation/atrial flutter: twice a day
QT interval = conditions: 6 days of 80 mg twice or three times daily, 10 patients
[4] = test system: patients with chronic atrial fibrillation/atrial flutter; conditions: titrated 80 mg/day to 320 mg/day after cardioversion; placebo 44 days
[5] = test system: patients with histories of sustained ventricular tachyarrhythmias; conditions: versus imipramine, mexiletine, pirmenol, procainamide, propafenone and quinidine, 496 patients

Compound | effect on heart rate and blood pressure [1] | mortality [2] | patients discontinued because of adverse events ([3]; 80 mg dose level) [%] | median time to recurrence of symptomatic ECG-documented atrial fibrillation/atrial flutter ([3]; 80 mg dose level) [days] | patients discontinued because of adverse events ([3]; 120 mg dose level) [%] | median time to recurrence of symptomatic ECG-documented atrial fibrillation/atrial flutter ([3]; 120 mg dose level) [days] | patients discontinued because of adverse events ([3]; 160 mg dose level) [%] | median time to recurrence of symptomatic ECG-documented atrial fibrillation/atrial flutter ([3]; 160 mg dose level) [days] | partial loss of repolarization effect (pharmacodynamic tolerance) (QT interval) | absorption (given with food) | apparent volume of distribution (human, in vivo) | eliminated by renal excretion as unchanged sotalol (human, in vivo) | protein binding (human, in vivo) | bioavailability (no significant presystemic metabolism) | absorption (oral ingestion on an empty stomach) | median time to recurrence of ECG-documented atrial fibrillation [4] | preventing death from arrhythmias or any other cardiac cause [5]
CC(C)NC[C@@H](O)c1ccc(NS(C)(=O)=O)cc1 [d-sotalol] | decreased resting and exercise heart rate without altering blood pressure | increased mortality compared with placebo |  |  |  |  |  |  |  |  |  |  |  |  |  |  | 
CC(C)NCC(O)c1ccc(NS(C)(=O)=O)cc1 (racemic) [sotalol] |  |  | 12 | 106 | 18 | 229 | 29 | 175 | four out of the ten patients | approximately 80% | two | 80-90% | negligible | completely bioavailable | completely absorbed | more than 180 days | more effective than the other agents
